Results published in patent US10344000B2, “Substituted bicyclic pyrazole compounds as RORgammaT inhibitors and uses thereof” (Merck Sharp & Dohme Corp., priority 2015, dated 2019).

These compounds were tested against human RORgammaT-Ligand Binding Domain (LBD) (Homo sapiens (Human), UniProt P51449) (assay: RORγ-Ligand Binding Domain TR-FRET Assay (SRC1_2 co-activator peptide)). Settings: Fret IC50 (nM), HIS-tagged RORγ-LBD 3 nM, biotinylated SRC1 LXXLL peptide 100 nM, incubated overnight at 4° C.
Assay type: biochemical

human RORgammaT-Ligand Binding Domain (LBD), sequence (P51449 269-508): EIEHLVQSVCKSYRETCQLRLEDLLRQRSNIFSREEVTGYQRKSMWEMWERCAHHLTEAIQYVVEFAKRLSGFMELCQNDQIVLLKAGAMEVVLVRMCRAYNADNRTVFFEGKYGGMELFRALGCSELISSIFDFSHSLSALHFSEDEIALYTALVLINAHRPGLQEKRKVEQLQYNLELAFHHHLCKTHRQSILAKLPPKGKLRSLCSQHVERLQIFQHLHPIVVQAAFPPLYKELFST

SMILES	IC50
N#CC1(c2cccc(Cl)c2C(=O)n2nc(C3=CCC(C(=O)O)CC3)c3c2COCC3)CCC1 (single isomer, unassigned) [Example 2C-A, (1R or S)-4-(1-{[2-chloro-6-(1-cyanocyclobutyl)phenyl]carbonyl}-1,4,5,7-tetrahydropyrano[3,4-c]pyrazol-3-yl)cyclohex-3-ene-1-carboxylic acid]	676 nM
N#CC1(c2cccc(Cl)c2C(=O)n2nc(C3=CCC(C(=O)O)CC3)c3c2COCC3)CCC1 (single isomer, unassigned) [Example 2C-B, (1R or S)-4-(1-{[2-chloro-6-(1-cyanocyclobutyl)phenyl]carbonyl}-1,4,5,7-tetrahydropyrano[3,4-c]pyrazol-3-yl)cyclohex-3-ene-1-carboxylic acid]	1050 nM

Same assay, conditions: HIS-tagged RORγ-LBD 3 nM, biotinylated SRC1 LXXLL peptide 100 nM, incubated overnight at 4° C.; read-out: Fret IC50

SMILES	IC50
O=C(O)C1CC=C(c2nn(C(=O)c3c(Cl)cccc3C3CC3)c3c2CCC(CO)C3)CC1 (single isomer, unassigned) [Example 6A, 4-((R or S)-1-(2-chloro-6-cyclopropylbenzoyl)-6-(hydroxymethyl)-4,5,6,7-tetrahydro-1H-indazol-3-yl)cyclohex-3-ene-1-carboxylic Acid]	173 nM
O=C(O)C1CC=C(c2nn(C(=O)c3c(Cl)cccc3C3CC3)c3c2CCC(CO)C3)CC1 (single isomer, unassigned) [Example 7A, 4-((R or S)-1-(2-chloro-6-cyclopropylbenzoyl)-6-(hydroxymethyl)-4,5,6,7-tetrahydro-1H-indazol-3-yl)cyclohex-3-ene-1-carboxylic Acid]	9 nM
O=C(O)C1CC=C(c2nn(C(=O)c3c(C4CC4)ccc(F)c3Cl)c3c2CCC(CO)C3)CC1 (single isomer, unassigned) [Example 7B, 4-((R or S)-1-(2-chloro-6-cyclopropyl-3-fluorobenzoyl)-6-(hydroxymethyl)-4,5,6,7-tetrahydro-1H-indazol-3-yl)cyclohex-3-ene-1-carboxylic acid]	14 nM
O=C(O)C1CC=C(c2nn(C(=O)c3c(Cl)cccc3C3(C(F)(F)F)CC3)c3c2CCC(CO)C3)CC1 (single isomer, unassigned) [Example 7D, 4-((R or S)-1-(2-chloro-6-(1-(trifluoromethyl)cyclopropyl)benzoyl)-6-(hydroxymethyl)-4,5,6,7-tetrahydro-1H-indazol-3-yl)cyclohex-3-ene-1-carboxylic acid]	5 nM
NCC1CCc2c(C3=CCC(C(=O)O)CC3)nn(C(=O)c3c(Cl)cccc3C3CC3)c2C1 (single isomer, unassigned) [Example 14A, 4-((R or S)-6-(aminomethyl)-1-(2-chloro-6-cyclopropylbenzoyl)-4,5,6,7-tetrahydro-1H-indazol-3-yl)cyclohex-3-ene-1-carboxylic Acid]	1200 nM
CC1(c2cccc(Cl)c2C(=O)n2nc(C3=CCC(C(=O)O)CC3)c3c2COCC3)CC1 (centres unmarked) [Example 1D, 4-(1-{[2-chloro-6-(1-methylcyclopropyl)phenyl]carbonyl}-1,4,5,7-tetrahydropyrano[3,4-c]pyrazol-3-yl)cyclohex-3-ene-1-carboxylic acid]	38 nM
N#CC1(c2cccc(Cl)c2C(=O)n2nc(C3=CCC(C(=O)O)CC3)c3c2CCC3)CCC1 (centres unmarked) [Example 1F, 4-(1-{[2-chloro-6-(1-cyanocyclobutyl)phenyl]carbonyl}-1,4,5,6-tetrahydrocyclopenta[c]pyrazol-3-yl)cyclohex-3-ene-1-carboxylic acid]	1170 nM

More lines, now with the values ahead:

IC50	SMILES
149 nM	O=C(O)C1CCN(c2nn(C(=O)c3c(Cl)cccc3C3CC3)c3c2CCCC3)CC1 [Example 16A, 1-(1-(2-chloro-6-cyclopropylbenzoyl)-4,5,6,7-tetrahydro-1H-indazol-3-yl)piperidine-4-carboxylic Acid]
57 nM	O=C(O)C1CC=C(c2nn(C(=O)c3c(Cl)cccc3C3CC3)c3c2CCC(O)C3)CC1 (single isomer, unassigned) [Example 10A, 4-((R or S)-1-(2-chloro-6-cyclopropylbenzoyl)-6-hydroxy-4,5,6,7-tetrahydro-1H-indazol-3-yl)cyclohex-3-ene-1-carboxylic Acid]
56 nM	O=C(O)C1CC=C(c2nn(C(=O)c3c(Cl)cccc3C3CC3)c3c2OCCC3)CC1 (centres unmarked) [Example 15A, 4-(1-(2-chloro-6-cyclopropylbenzoyl)-1,5,6,7-tetrahydropyrano[3,2-c]pyrazol-3-yl)cyclohex-3-ene-1-carboxylic Acid]
32 nM	O=C(O)C1CC=C(c2nn(C(=O)c3c(Cl)cccc3C3CC3)c3c2CCC(O)C3)CC1 (single isomer, unassigned) [Example 10B, 4-((R or S)-1-(2-chloro-6-cyclopropylbenzoyl)-6-hydroxy-4,5,6,7-tetrahydro-1H-indazol-3-yl)cyclohex-3-ene-1-carboxylic Acid]
15 nM	O=C(O)C1CC=C(c2nn(C(=O)c3c(Cl)cccc3C3COC3)c3c2CCC(CO)C3)CC1 (single isomer, unassigned) [Example 7C, 4-((R or S)-1-(2-chloro-6-(oxetan-3-yl)benzoyl)-6-(hydroxymethyl)-4,5,6,7-tetrahydro-1H-indazol-3-yl)cyclohex-3-ene-1-carboxylic acid]
